Data as given in patent publication US20230390463A1, “TISSUE SCAFFOLDS” (JD BIOMEDICAL SOLUTIONS LTD., priority 2020, published 2023).
Where two headings read alike, the source gives them in different places.

Legend:
[1] = Oil carrying capacity (oil fraction at lowest TSI); assay type: physicochemical; details: decane / MES-NaCl buffer, 0.1% (v/v) surfactant, 37° C.
Description: The proposed system of determining the oil fraction at which optimum emulsion stability occurs, the ‘oil carrying capacity’ (OCC) of the surfactant, is intended as a tool for surfactant selection in a system where the desired oil fraction is known. Equally, it may be used to optimise oil fraction ‘carried’ in the emulsion when a particular surfactant is required. It is a practical tool to be used in conjunction with other metrics, such as HLB, but its simplicity and broad application make it versatile and easy to implement to formulation practice.
The oil fraction at the lowest TSI after 15 minutes was identified as the ‘oil carrying capacity’ (OCC) of that surfactant. Further oil/buffer/surfactant mixtures were prepared at 5% oil fractions either side of this minimum (i.e. an initial minimum of 70% oil fraction would be tested then at 65% and 75% oil fraction).

[2] = surfactant, cited from earlier work
[3] = Hydrophilic-lipophilic balance (HLB); assay type: physicochemical; details: experimentally determined required HLB range
Description: As understood herein, the term “hydrophilic-lipophilic balance (HLB)” describes the ratio between the size of the hydrophilic and lipophilic regions of a surfactant molecule. The empirically derived formula: […]
Was introduced for alkyl ethoxylates (Griffin W. C. J. Soc. Cosmet. Chem., 5 (1954), p. 249.) The HLB of more complex surfactant structures is found using a systematic approach based on chemical group assignments (Davies J. T., Rideal E. K. Interfacial Phenomena Academic Press, New York (1961), pp. 371-378):
HLB=7+Σ(Hydrophile group number)−Σ(lipophile group number)
A water-in-oil emulsion (w/o) has […]. An oil-in-water (o/w) emulsion has […]. The propensity for formation of a w/o or o/w emulsion is determined by the balance of hydrophobicity and hydrophilicity of the solutions in the mixture. This may be determined using the HLB scale. Oleic phase reagents are assigned an HLB number, determined experimentally, that allows for selection of an appropriate surfactant to cause emulsification with the aqueous phase. […] HLB as understood herein is a semi-quantitative measure of the relative molecular weights of the hydrophilic and lipophilic regions of a surfactant molecule assigned on a scale from 0.5 (extremely lipophilic) to 19.5 (extremely hydrophilic).

[4] = system: h-tert human mesenchymal stem cells; experiment: Cyto-compatibility of scaffolds (CCK-8, contact and leachable assay); assay type: cell-based; details: acute (24 h) and chronic (120 h) exposure; surfactant at 0.1% v/v in media
Protocol: Cylindrical samples were cut with an 8 mm biopsy punch (n=3) were cut from two scaffolds. […] At 24 h (acute response time) and 120 h (chronic response time), 300 μl DMEM/CCK-8 (10:1) was added and incubated for 4 hours at 37° C. before reading absorbance at 450 nm. Two scaffolds of the same composition (D3, D4) from different manufacturing batches (0.1% Tx-165 surfactant, 90% porous, 2:1 fibrin: PVA, 2% fibrinogen) were tested with triplicate samples from each. […] This material is known to be non-cytotoxic, verified with both in vitro and in vivo assays.

[5] = Turbiscan emulsion stability (TSI) of decane/buffer emulsions stabilised with surfactant; assay type: physicochemical; details: 0.1% (v/v) surfactant, 15 mins after mixing
Description: Stability was herein reported using the Turbiscan™ stability index (TSI). This non-destructive, non-invasive technique gives the stability of the sample over its whole selected height as a function of transmitted and backscattered light compared to the same measurements at the previous timepoint. Kinetic stability is built up over sequential scans. The pattern of change across the height of the sample gives a ‘fingerprint’ characteristic of the mode of destabilisation. TSI is defined in equation 1: […]
where scani is the backscattering value at a given timepoint, scani-1 is the backscattering value from the previous timepoint, h is the height of the scan and H is the total sample height from the first to the last scan. TSI is the sum of the differences between sequential scans and thus represents the stability of the sample over a defined timeframe. TSI reduces with increasing stability.
Stock solutions of surfactants were prepared in 7 ml polystyrene bijou by dispersing 0.1% (v/v) surfactant in decane so that surfactant scaled with oil fraction. These stock solutions were shaken briefly to disperse the surfactants before adding the deionised water. 4 ml mixtures were prepared in triplicate for each surfactant at various oil fractions (50, 60, 70, 80, 90% v/v oil-surfactant). Each sample was vortexed for 1 minute using WhirliMixer™ (Fisherbrand) to homogenise immediately prior to stability measurements.
3 ml of the sample was pipetted into a borosilicate glass cuvette, taking care to maintain a clean meniscus, and analysed using Turbiscan™ LAB Analyser (Formulation, Toulouse, France) scanning every 30 seconds for a total of 15 minutes.
Turbiscan stability index (TSI) was plotted for each surfactant as a function of oil fraction in the emulsion preparation, HLB, or time. Lower TSI indicates less change in the transmitted light, or less change in particle size and position.
Stability was measured using the Turbiscan™ static multiple light scattering analyser and expressed using the Turbiscan stability index (TSI) which reflects the change in transmitted and backscattered light across the height of a sample over a period of time. A higher value of TSI reflects poorer stability; a lower value reflects greater stability. However, because TSI measures rate of change, emulsions which break instantly after mixing ceases can display low TSI values.

[6] = as above; assay type: physicochemical; details: 0.1% (v/v) surfactant, 15 mins after mixing; remark: listed apart in the source

In the case of Octylphenol ethoxylate [Triton X-102], the “oil fraction at maximum stability (oil carrying capacity)” value (“oil fraction at maximum stability” below) [1] was 70%.
For “Polyoxyethylene (40) isooctylphenyl ether [Triton X-405]”, the HLB [2] is listed as 17.6 and the “oil fraction at maximum stability” value [1] is listed as 70%.
In the case of “Polyethylene glycol 4-tert- octylphenyl ether [Triton X-45]”, the HLB [2] is given as 9.8.
With `CCCCCCCCCC` [decane] the “required HLB of the decane oil phase” value [3] was 10-13.
For Nonylphenol ethoxylate [Tergitol NP-10], the HLB [2] is given as 13.2.
For “Polyethylene glycol 4-tert-octylphenyl ether [Triton X-100 reduced]”, the HLB [2] is listed as 9.8.
In the case of C11-15 pareth-15 [Tergitol 15-S-15], the HLB [2] is given as 15.4.
In the case of “Polyethylene glycol tert-octylphenyl ether [Triton X-114 reduced]”, the HLB [2] is given as 13.4.
In the case of “Ethylene oxide-propylene oxide copolymer mono(2-ethylhexyl) ether [Ecosurf EH-9]”, the HLB [2] is listed as 12.5.
For C11-15 pareth-9 [Tergitol 15-S-9], the HLB [2] is listed as 13.3 and the HLB ([2]; listed as Tergitol T-S-9) is listed as ~13.
With Octylphenol ethoxylate [Triton X-165] the cytotoxicity [4] was “cytotoxic in itself”.
In the case of “Polyethylene glycol trimethylnonyl ether [Tergitol TMN-6]”, the HLB [2] is given as 13.1.
For “Octylphenol ethoxylate [Triton N-101 reduced]”, the HLB [2] is given as 14.4.
In the case of “Polyethylene glycol trimethylnonyl ether [Tergitol TMN-10]”, the HLB [2] is given as 14.4.
For “Polyethylene glycol tert-octylphenyl ether [Triton X-114]”, the HLB [2] is given as 12.3 and the “oil fraction at maximum stability” value [1] is given as 70%.
In the case of C11-15 pareth-7 [Tergitol 15-S-7], the HLB [2] is given as 12.1.
In the case of “Polyethylene glycol tert- octylphenyl ether [Triton X-100]”, the HLB [2] is listed as 13.4, the “oil fraction at maximum stability” value [1] is listed as 70% and the “Turbiscan stability index (TSI)” value ([5]; 70% v/v decane, mixing speed 1000 rpm) is listed as 3.189. The “Turbiscan stability index (TSI)” value ([5]; 70% v/v decane, mixing speed 2000 rpm) was 2.758, the “Turbiscan stability index (TSI)” value ([5]; 70% v/v decane, mixing speed 3000 rpm) was 8.763 and the “Turbiscan stability index (TSI)” value ([5]; 70% v/v decane, mixing speed 4000 rpm) was 3.637. For the same compound, the “Turbiscan stability index (TSI)” value ([5]; 70% v/v decane, mixing speed 5000 rpm) was 2.705, the “Turbiscan stability index (TSI)” value ([5]; 80% v/v decane, mixing speed 1000 rpm) was 2.483 and the “Turbiscan stability index (TSI)” value ([5]; 80% v/v decane, mixing speed 2000 rpm) was 2.225. For the same compound, the “Turbiscan stability index (TSI)” value ([5]; 80% v/v decane, mixing speed 3000 rpm) was 2.493, the “Turbiscan stability index (TSI)” value ([5]; 80% v/v decane, mixing speed 5000 rpm) was 5.128 and the “Turbiscan stability index (TSI)” value ([6]; 75% v/v decane, mixing speed 1000 rpm) was 3.571. The “Turbiscan stability index (TSI)” value ([6]; 75% v/v decane, mixing speed 2000 rpm) was 2.601, the “Turbiscan stability index (TSI)” value ([6]; 75% v/v decane, mixing speed 3000 rpm) was 2.723 and the “Turbiscan stability index (TSI)” value ([6]; 75% v/v decane, mixing speed 4000 rpm) was 3.213. For the same compound, the “Turbiscan stability index (TSI)” value ([6]; 75% v/v decane, mixing speed 5000 rpm) was 2.398 and the “Turbiscan stability index (TSI)” value ([6]; 80% v/v decane, mixing speed 4000 rpm) was 9.886.
